Data: patent US11220482B2, “Aminopyridinemethanol compounds and their use” (UNIVERSITE AMIENS PICARDIE JULES VERNE, priority 2017, dated 2022)
Counter-ions that a name gives are not always drawn. Like-named read-outs stand apart in the source and are kept apart here.

How the values were obtained:
[1] = test system: Plasmodium falciparum W2; assay: Plasmodium falciparum susceptibility assay, first round (SYBR Green I); format: cell-based
[2] = test system: Plasmodium falciparum 3D7; assay: as above; format: cell-based
[3] = test system: P. falciparum 3D7; assay: P. falciparum growth inhibition assay, second round (SYBR Green I, ICEstimator); format: cell-based, Plasmodium falciparum
[4] = W2, first round, 48-h incubation, strain resistant to CQ, sensitive to MQ, read-out: IC50 (nM) Plasmodium falciparum W2 (converted)
[5] = 3D7, first round, 48-h incubation, strain susceptible to CQ, decreased susceptibility to MQ, read-out: IC50 (nM) Plasmodium falciparum 3D7 (converted)
[6] = 48 h, read-out: IC50 (nM) Plasmodium falciparum 3D7 (converted)
[7] = Plasmodium falciparum, 3D7, 48 h

Compound | IC50 [1, 4] [nM] | IC50 [2, 5] [nM] | also measured
O[C@H](CNCCCN1CCN(C(c2ccccc2)c2ccccc2)CC1)c1cc(-c2ccc(C(F)(F)F)cc2)nc(C(F)(F)F)c1 [1m•HCl, (S)-2-((3-(4-benzhydrylpiperazin-1-yl)propyl)amino)-1-(2-(trifluoromethyl)-6-(4-(trifluoromethyl)phenyl)pyridin-4-yl)ethanol hydrochloride] | 67 ± 9.3 |  | 
O[C@@H](CNCCCN1CCN(C(c2ccccc2)c2ccccc2)CC1)c1cc(-c2ccc(C(F)(F)F)cc2)nc(C(F)(F)F)c1 [1n•HCl, (R)-2-((3-(4-benzhydrylpiperazin-1-yl)propyl)amino)-1-(2-(trifluoromethyl)-6-(4-(trifluoromethyl)phenyl)pyridin-4-yl)ethanol hydrochloride] |  | 125 | 
CCN(CC)CCCC(C)Nc1ccnc2cc(Cl)ccc12 (stereo not shown) [CQ, Chloroquine, reference compound] |  |  | IC50 ([2]; 3D7, 48 h, read-out: IC50 (nM) Plasmodium falciparum 3D7): 75.9 ± 3 nM; IC50 ([1]; W2, 48 h, read-out: IC50 (nM) Plasmodium falciparum W2): 199 ± 27 nM
CCCCCNC[C@H](O)c1cc(-c2ccc(C(F)(F)F)cc2)nc(C(F)(F)F)c1 [Compound 1b, (R)-2-(Pentylamino)-1-(2-(trifluoromethyl)-6-(4-(trifluoromethyl)phenyl)pyridin-4-yl)ethanol] | 7.2 | 41.8 | 
CCCCCCNC[C@@H](O)c1cc(-c2ccc(C(F)(F)F)cc2)nc(C(F)(F)F)c1 [Compound 1c, (S)-2-(Hexylamino)-1-(2-(trifluoromethyl)-6-(4-(trifluoromethyl)phenyl)pyridin-4-yl)ethanol] |  | 47.1 ± 13.2 | 
CCCCCCNC[C@H](O)c1cc(-c2ccc(C(F)(F)F)cc2)nc(C(F)(F)F)c1 [Compound 1d, (R)-2-(Hexylamino)-1-(2-(trifluoromethyl)-6-(4-(trifluoromethyl)phenyl)pyridin-4-yl)ethanol] | 8.3 | 32.3 | 
CCCCCCCNC[C@@H](O)c1cc(-c2ccc(C(F)(F)F)cc2)nc(C(F)(F)F)c1 [Compound 1e, (S)-2-(Heptylamino)-1-(2-(trifluoromethyl)-6-(4-(trifluoromethyl)phenyl)pyridin-4-yl)ethanol] | 5.6 | 17.7 | 
CCCCCCCNC[C@H](O)c1cc(-c2ccc(C(F)(F)F)cc2)nc(C(F)(F)F)c1 [Compound 1f, (R)-2-(Heptylamino)-1-(2-(trifluoromethyl)-6-(4-(trifluoromethyl)phenyl)pyridin-4-yl)ethanol] | 3.5 | 54.4 | 
O[C@H](CNCCNC(c1ccccc1)c1ccccc1)c1cc(-c2ccc(C(F)(F)F)cc2)nc(C(F)(F)F)c1 [Compound 1g, (S)-2-((2-(Benzhydrylamino)ethyl)amino)-1-(2-(trifluoromethyl)-6-(4-(trifluoromethyl)phenyl)pyridin-4-yl)ethanol] | 13.1 ± 1 | 22.4 ± 2.5 | 
O[C@@H](CNCCNC(c1ccccc1)c1ccccc1)c1cc(-c2ccc(C(F)(F)F)cc2)nc(C(F)(F)F)c1 [Compound 1h, (R)-2-((2-Benzhydrylamino)ethylamino)-1-(2-(trifluoromethyl)-6-(4-(trifluoromethyl)phenyl)pyridin-4-yl)ethanol] | 5.9 | 25 | 
COC[C@H](Cc1ccccc1)NC[C@H](O)c1cc(-c2ccc(C(F)(F)F)cc2)nc(C(F)(F)F)c1 [Compound 1j, (R)-2-(((S)-1-Methoxy-3-phenylpropan-2-yl)amino)-1-(2-(trifluoromethyl)-6-(4-(trifluoromethyl)phenyl)pyridin-4-yl)ethanol] | 14.4 | 32.8 | 
O[C@H](CNCCCN1CCN(C(c2ccccc2)c2ccccc2)CC1)c1cc(-c2ccc(C(F)(F)F)cc2)nc(C(F)(F)F)c1 [Compound 1m, (S)-2-((3-(4-benzhydrylpiperazin-1-yl)propyl)amino)-1-(2-(trifluoromethyl)-6-(4-(trifluoromethyl)phenyl)pyridin-4-yl)ethanol] |  | 126 | 
O[C@H](CNCCCC(F)(F)F)c1cc(-c2ccc(C(F)(F)F)cc2)nc(C(F)(F)F)c1 [Compound 1o, (S)-2-((4,4,4-trifluorobutyl)amino)-1-(2-(trifluoromethyl)-6-(4-(trifluoromethyl)phenyl)pyridin-4-yl)ethan-1-ol] |  |  | IC50 [3, 6]: 39.3 ± 5.83 nM; IC50 [3, 7]: < 50 nM
O[C@@H](CNCCCC(F)(F)F)c1cc(-c2ccc(C(F)(F)F)cc2)nc(C(F)(F)F)c1 [Compound 1p, (R)-2-((4,4,4-trifluorobutyl)amino)-1-(2-(trifluoromethyl)-6-(4-(trifluoromethyl)phenyl)pyridin-4-yl)ethan-1-ol] |  |  | IC50 [3, 6]: 43 nM; IC50 [3, 7]: < 50 nM
O[C@H](CNCCCCCCF)c1cc(-c2ccc(C(F)(F)F)cc2)nc(C(F)(F)F)c1 [Compound 1q, (S)-2-((6-fluorohexyl)amino)-1-(2-(trifluoromethyl)-6-(4-(trifluoromethyl)phenyl)pyridine-4-yl)ethan-1-ol] |  |  | IC50 [3, 6]: 31.4 nM; IC50 [3, 7]: < 50 nM
O[C@H](CN[C@H](COCC1CC1)Cc1ccccc1)c1cc(-c2ccc(C(F)(F)F)cc2)nc(C(F)(F)F)c1 [Compound 1u, (S)-2-(((S)-1-(cyclopropylmethoxy)-3-phenylpropan-2-yl)amino)-1-(2-(trifluoromethyl)-6-(4-(trifluoromethyl)phenyl)pyridin-4-yl)ethan-1-ol] |  |  | IC50 [3, 7]: 9.31 ± 2.16 nM
O[C@H](CN[C@H](COCC1CC1)Cc1ccccc1)c1ccc(-c2ccc(C(F)(F)F)cc2)nc1C(F)(F)F [Compound 30u, (S)-2-(((S)-1-(cyclopropylmethoxy)-3-phenylpropan-2-yl)amino)-1-(2-(trifluoromethyl)-6-(4-(trifluoromethyl)phenyl)pyridin-3-yl)ethan-1-ol] |  |  | IC50 [3, 7]: 165 ± 21.9 nM
O[C@@H](CN[C@H](COCC1CC1)Cc1ccccc1)c1ccc(-c2ccc(C(F)(F)F)cc2)nc1C(F)(F)F [Compound 30v, (R)-2-(((S)-1-(cyclopropylmethoxy)-3-phenylpropan-2-yl)amino)-1-(2-(trifluoromethyl)-6-(4-(trifluoromethyl)phenyl)pyridin-3-yl)ethan-1-ol] |  |  | IC50 [3, 7]: 896 nM

Second part, led by results:

IC50 [1, 4] [nM] | IC50 [2, 5] [nM] | Compound | also measured
132 ± 10.3 | 479 ± 38.2 | CCCCNC[C@@H](O)c1ccc(-c2ccc(C(F)(F)F)cc2)nc1C(F)(F)F [Compound 30a, (S)-2-(Butylamino)-1-(2-(trifluoromethyl)-6-(4-(trifluoromethyl)phenyl)pyridin-3-yl)ethanol] | 
523 | 1380 | CCCCNC[C@H](O)c1ccc(-c2ccc(C(F)(F)F)cc2)nc1C(F)(F)F [Compound 30b] | 
551 | 558 | CCCCCNC[C@H](O)c1ccc(-c2ccc(C(F)(F)F)cc2)nc1C(F)(F)F [Compound 30d, (R)-2-(Pentylamino)-1-(2-(trifluoromethyl)-6-(4-(trifluoromethyl)phenyl)pyridin-3-yl)ethanol] | 
27.2 ± 9.3 | 170 ± 24 | CCCCCCNC[C@@H](O)c1ccc(-c2ccc(C(F)(F)F)cc2)nc1C(F)(F)F [Compound 30e, (S)-2-(Hexylamino)-1-(2-(trifluoromethyl)-6-(4-(trifluoromethyl)phenyl)pyridin-3-yl)ethanol] | 
523 | 575 | CCCCCCNC[C@H](O)c1ccc(-c2ccc(C(F)(F)F)cc2)nc1C(F)(F)F [Compound 30f, (R)-2-(Hexylamino)-1-(2-(trifluoromethyl)-6-(4-(trifluoromethyl)phenyl)pyridin-3-yl)ethanol] | 
25.2 ± 1.2 | 97 ± 14 | CCCCCCCNC[C@@H](O)c1ccc(-c2ccc(C(F)(F)F)cc2)nc1C(F)(F)F [Compound 30g, (S)-2-(Heptylamino)-1-(2-(trifluoromethyl)-6-(4-(trifluoromethyl)phenyl)pyridin-3-yl)ethanol] | 
31.7 | 519 | CCCCCCCNC[C@H](O)c1ccc(-c2ccc(C(F)(F)F)cc2)nc1C(F)(F)F [Compound 30h, (R)-2-(Heptylamino)-1-(2-(trifluoromethyl)-6-(4-(trifluoromethyl)phenyl)pyridin-3-yl) ethanol] | 
248 ± 36 | 32.9 | O[C@H](CNCCNC(c1ccccc1)c1ccccc1)c1ccc(-c2ccc(C(F)(F)F)cc2)nc1C(F)(F)F [Compound 30i, (S)-2-((2-(Benzhydrylamino)ethyl)amino)-1-(2-(trifluoromethyl)-6-(4-(trifluoromethyl)phenyl)pyridin-3-yl)ethanol] | 
171 | 92.1 | O[C@@H](CNCCNC(c1ccccc1)c1ccccc1)c1ccc(-c2ccc(C(F)(F)F)cc2)nc1C(F)(F)F [Compound 30j, (R)-2-((2-(Benzhydrylamino)ethyl)amino)-1-(2-(trifluoromethyl)-6-(4-(trifluoromethyl)phenyl)pyridin-3-yl)ethanol] | 
351 ± 50.7 | 65.3 ± 8.4 | COC[C@H](Cc1ccccc1)NC[C@@H](O)c1ccc(-c2ccc(C(F)(F)F)cc2)nc1C(F)(F)F [Compound 30k, (S)-2-(((S)-1-methoxy-3-phenylpropan-2-yl)amino)-1-(2-(trifluoromethyl)-6-(4-(trifluoromethyl)phenyl)pyridin-3-yl)ethanol] | 
258 | 414 | COC[C@H](Cc1ccccc1)NC[C@H](O)c1ccc(-c2ccc(C(F)(F)F)cc2)nc1C(F)(F)F [Compound 30l, (R)-2-(((S)-1-methoxy-3-phenylpropan-2-yl)amino)-1-(2-(trifluoromethyl)-6-(4-(trifluoromethyl)phenyl)pyridin-3-yl)ethanol] | 
212 ± 38.6 | 111 ± 8.3 | O[C@H](CNCCCN1CCN(C(c2ccccc2)c2ccccc2)CC1)c1ccc(-c2ccc(C(F)(F)F)cc2)nc1C(F)(F)F [Compound 30o] | 
89.6 | 84.9 | O[C@@H](CNCCCN1CCN(C(c2ccccc2)c2ccccc2)CC1)c1ccc(-c2ccc(C(F)(F)F)cc2)nc1C(F)(F)F [Compound 30p, (R)-2-((3-(4-Benzhydrylpiperazin-1-yl)propyl)amino)-1-(2-(trifluoromethyl)-6-(4-(trifluoromethyl)phenyl)pyridin-3-yl)ethanol] | 
